Data as given in PMC12444508, “Mechanistic Insights into the Anticancer Action of Novel 2‑Hydroxy-1,4-naphthoquinone Thiol Derivatives” (ACS Omega, 2025).

Test system: OSCC cell lines (SCC-4, SCC-9, and SCC-25)
Assay: Average selectivity index over three OSCC cell lines (MTT)
Type: cell-based, human
Settings: average of SI for SCC-4, SCC-9 and SCC-25 vs normal oral fibroblasts
Procedure: Human SCC-4, SCC-9, and SCC-25 cells, derived from a human oral tongue SCC (squamous cell carcinoma), were obtained from ATCC (CRL-1624, CRL-1629, and CRL-1628, respectively) and maintained in 1:1 DMEM/F12 (Dulbecco’s modified Eagle’s medium and Ham’s F12 medium; Gibco (Thermo Fisher, Waltham, MA, USA)) supplemented with 10% (v/v) FBS (fetal bovine serum; Invitrogen, Thermo Fisher, Waltham, MA, USA) and 400 ng/mL hydrocortisone (Sigma-Aldrich Corporation, St. Louis, MO, USA). B16-F10 (melanoma; CRL-6475), HCT-116 (colorectal cancer; CCL-247), and HepG2 (liver cancer; HB-8065), in addition to primary normal human gingival fibroblasts obtained from ATCC (PCS-201-018), were maintained in DMEM supplemented with 10% (v/v) of FBS and were used in a maximum of six passages. Cells were grown in a humidified environment containing 5% CO2 at 37 °C. For all biological assays, compounds and shikonin were solubilized in 100% DMSO (all Sigma-Aldrich Corp.) to a final concentration of 10 mM and lapachol in ethanol. The carboplatin control was prepared in water (Fauldcarbo; Libbs Farmacêutica, São Paulo, SP, Brazil) and was used as a standard anticancer compound.
The viability of OSCC cell lines and primary human fibroblast cells was assessed using the MTT assay as in ref . Briefly, cells were grown in triplicate in 96-well plates (5 × 10^3 cells/well) until confluence. Then, the medium was removed, fresh medium was added, and the cells were returned to the incubator in the presence of different compounds. DMSO at the same concentration was used as a control for 100% cell viability. After 72 h, cells were incubated with 0.5 mg/mL of MTT reagent (3-(4,5-dimethyl-2-thiazolyl)-2,5-diphenyl-2-H-tetrazolium bromide) (Sigma-Aldrich Corporation, Louis, MO, USA) for 3.5 h. Then, the wells containing the cells were washed with PBS heated to 37 °C, the formazan crystals were dissolved in a solvent solution (DMSO/methanol 1:1 v/v), and the absorbance was read at 560 nm using an EPOCH microplate spectrophotometer (BioTek Instruments, Winooski, VT, USA) with the background absorbance at 670 nm subtracted. Control chemotherapeutics (carboplatin and shikonin) were used.
Data are presented as means ± SD. IC50 values for the MTT assays were obtained by nonlinear regression using the […] 8.4.3.0 program (Intuitive Software for Science, San Diego, CA, USA) from at least three independent experiments. A dose–response curve (inhibitor) vs response using the least-squares method was used to determine the IC50, SD, and R2 of the data. The selectivity index was calculated as SI = IC50 of the compound in normal oral fibroblast cells/IC50 of the same compound for each oral cancer cell line (SCC-4, SCC-9, and SCC-25) and averaged when indicated.

For `CC1(C)OC2=C(C(=O)c3ccccc3C2=O)C(Sc2ccccc2)C1Sc1ccccc1` (stereo not shown) [7a, 2,2-Dimethyl-3,4-bis(phenylthio)-3,4-dihydro-2H-benzo[g]chromene-5,10-dione], the “average SI” value was 3.2.
